In paper PMC5355811 (Nature Communications, 2017):
“And” between values parts separate entries of the source, which are not always exact repeats. Equal entries are not always repeated. Where two headings read alike, the source gives them in different places.

Legend:
Format in all cases: cell-based
[1] = tested on: Ba/F3 cells of EGFR-T790M/del19; assay: Drug sensitivity screening at 100 nM, Ba/F3 EGFR-T790M/del19; conditions: for Relative cell viability (% of DMSO control): 100 nM; for viability at 0.1 µM: Mus musculus, BaF3, 72 h, read-out: Relative cell viability (ratio to DMSO control), del19/T790M
Description: (§1) After the incubation, cell viability was measured using CellTiter-Glo assay. The relative cell viability was calculated as a ratio of each value to that of the DMSO control.

[2] = tested on: Ba/F3 cells of EGFR-del19; assay: Drug sensitivity screening at 100 nM, Ba/F3 EGFR-del19; conditions: for Relative cell viability (% of DMSO control) in del19 Ba/F3 cells: 100 nM; for viability at 0.1 µM: Mus musculus, BaF3, 72 h, read-out: Relative cell viability (ratio to DMSO control), del19
Description: as §1

[3] = tested on: Ba/F3 cells of EGFR-C797S/T790M/del19; assay: Drug sensitivity screening at 100 nM, Ba/F3 EGFR-C797S/T790M/del19; conditions: Mus musculus, BaF3, 72 h, 100 nM inhibitor, 72 h, DMSO = 100; mean of three independent experiments (Fig. 1a data)
Description: as §1

[4] = 100 nM inhibitor, 72 h, DMSO = 100, mean of three independent experiments (Fig. 1a data)

Structure (SMILES)	Relative cell viability (% of DMSO control) ([1]; 72 h, DMSO = 100, experiment 1)	Relative cell viability (% of DMSO control) ([1]; 72 h, DMSO = 100, experiment 2)	Relative cell viability (% of DMSO control) ([1]; 72 h, DMSO = 100, experiment 3)	viability at 0.1 µM [1, 4]	Relative cell viability (% of DMSO control) in del19 Ba/F3 cells ([2]; 72 h, DMSO = 100, experiment 1)	Relative cell viability (% of DMSO control) in del19 Ba/F3 cells ([2]; 72 h, DMSO = 100, experiment 2)	Relative cell viability (% of DMSO control) in del19 Ba/F3 cells ([2]; 72 h, DMSO = 100, experiment 3)	viability at 0.1 µM [2, 4]	viability at 0.1 µM [3]	Relative cell viability (ratio to DMSO control), del19/T790M [1, 4]	Relative cell viability (ratio to DMSO control), del19 [2, 4]	viability at 0.1 µM [1]	viability at 0.1 µM [2]
CO[C@H]1C[C@@H]2CC[C@@H](C)[C@@](O)(O2)C(=O)C(=O)N2CCCC[C@H]2C(=O)O[C@H]([C@H](C)C[C@@H]2CC[C@@H](O)[C@H](OC)C2)CC(=O)[C@H](C)/C=C(\C)[C@@H](O)[C@@H](OC)C(=O)[C@H](C)C[C@H](C)/C=C/C=C/C=C/1C [Rapamycin, rapamycin]	30.0228	36.7261	31.8573	32.9%	26.4621	39.8271	36.4731	34.3%	27.6%	–	–	–	–
COc1cc(N2CCC(N3CCN(C)CC3)CC2)ccc1Nc1ncc(Cl)c(Nc2ccccc2S(=O)(=O)C(C)C)n1 [TAE684]	–	–	–	98.1%	–	–	–	105%	110%	–	–	–	–
CC(=O)O[C@H]1C(=O)[C@@]2(C)[C@H]([C@H](OC(=O)c3ccccc3)[C@]3(O)C[C@H](OC(=O)[C@H](O)[C@@H](NC(=O)c4ccccc4)c4ccccc4)C(C)=C1C3(C)C)[C@]1(OC(C)=O)CO[C@@H]1C[C@@H]2O [paclitaxel]	72.6289	87.6485	88.6746	83%	51.8383	52.2569	51.6533	51.9%	95.1%	–	–	–	–
CCCS(=O)(=O)Nc1ccc(F)c(C(=O)c2c[nH]c3ncc(-c4ccc(Cl)cc4)cc23)c1F [Vemurafenib, vemurafenib]	92.0888	107.966	104.772	102%	102.039	116.573	106.065	108%	96.8%	–	–	–	–
CC(=O)Nc1cccc(-n2c(=O)n(C3CC3)c(=O)c3c(Nc4ccc(I)cc4F)n(C)c(=O)c(C)c32)c1 [Trametinib, trametinib]	11.0855	11.5677	12.1404	11.6%	0.7444	0.954	0.9176	0.872%	44.2%	–	–	–	–
C[C@H]1Oc2cc(cnc2N)-c2c(nn(C)c2C#N)CN(C)C(=O)c2ccc(F)cc21 [Lorlatinib, lorlatinib]	93.1744	112.187	104.505	103%	99.5381	109.489	108.837	106%	126%	–	–	–	–
O=C(C(c1ccccc1)c1ccccc1)N1CCN(CC(O)COc2cccc3ncccc23)CC1 (stereo not shown) [MS209]	106.534	123.336	98.5141	–	97.9213	113.609	104.789	–	–	109.461	105.44	–	–
COc1cc2c(Oc3ccc(NC(=O)C4(C(=O)Nc5ccc(F)cc5)CC4)cc3F)ccnc2cc1OCCCN1CCOCC1 [Foretinib, foretinib]	105.61	122.653	104.986	111%	89.6065	99.5833	99.8956	96.4%	135%	–	–	–	–
Cc1[nH]c(/C=C2\C(=O)Nc3ccc(S(=O)(=O)Cc4c(Cl)cccc4Cl)cc32)c(C)c1C(=O)N1CCC[C@@H]1CN1CCCC1 [PHA665752]	–	–	–	110%	109.731	119.895	113.452	114%	136%	–	–	–	–
Cn1cnc2c(F)c(Nc3ccc(Br)cc3Cl)c(C(=O)NOCCO)cc21 [AZD6244]	105.003	111.809	110.93	109%	44.8792	57.317	50.3776	50.9%	134%	–	–	–	–
Nc1ncnc2c1c(-c1cccc(OCc3ccccc3)c1)cn2[C@H]1C[C@@H](CN2CCC2)C1 [AEW541]	–	–	–	102%	86.142	111.013	118.474	105%	132%	–	–	–	–
COC(=O)c1ccc2c(c1)NC(=O)/C2=C(\Nc1ccc(N(C)C(=O)CN2CCN(C)CC2)cc1)c1ccccc1 [BIBF1120]	–	–	–	91.1%	91.4241	97.5116	102.157	97%	108%	–	–	–	–
Cc1ccc(NC(=O)c2ccc(CN3CCN(C)CC3)cc2)cc1Nc1nccc(-c2cccnc2)n1 [Imatinib, imatinib]	–	–	–	–	–	–	–	–	129%	–	–	–	–
C[C@]12O[C@H](C[C@]1(O)CO)n1c3ccccc3c3c4c(c5c6ccccc6n2c5c31)CNC4=O [CEP701]	–	–	–	–	–	–	–	–	–	–	–	7.99%	2.57%
CS(=O)(=O)CCNCc1ccc(-c2ccc3ncnc(Nc4ccc(OCc5cccc(F)c5)c(Cl)c4)c3c2)o1 [Lapatinib, lapatinib]	–	–	–	–	–	–	–	–	–	–	–	102%	128%
Cc1nc2ccc(-n3ncc(C(=O)c4cc5ccccc5[nH]4)c3N)cc2[nH]1 [CH5183284]	87.4669	110.946	103.872	–	100.01	123.157	110.518	–	–	100.76 and 100.762	111.23 and 111.228	–	–
C=CCNC1=C2C[C@@H](C)C[C@H](OC)[C@H](O)[C@@H](C)/C=C(\C)[C@H](OC(N)=O)[C@@H](OC)/C=C\C=C(/C)C(=O)NC(=CC1=O)C2=O [17-AAG]	65.6049	64.9663	61.0089	–	47.4299	59.7934	55.225	–	–	63.86	54.15 and 54.1494	–	–
COc1cc2nccc(Oc3ccc(NC(=O)NC4CC4)c(Cl)c3)c2cc1C(N)=O [E7080]	107.332	130.309	117.831	–	87.8792	107.525	116.989	–	–	118.49 and 118.491	104.13 and 104.131	–	–
CO[C@H]1C[C@@H]2CC[C@@H](C)[C@@](O)(O2)C(=O)C(=O)N2CCCC[C@H]2C(=O)O[C@H]([C@H](C)C[C@@H]2CC[C@@H](OCCO)[C@H](OC)C2)CC(=O)[C@H](C)/C=C(\C)[C@@H](O)[C@@H](OC)C(=O)[C@H](C)C[C@H](C)/C=C/C=C/C=C/1C [Everolimus, everolimus]	31.3636	39.0956	30.3952	33.6%	25.026	29.0998	35.5918	29.9%	28%	–	–	–	–
